Source: article PMC6985109, “Cellular apoptosis and necrosis as therapeutic targets for novel Eugenol Tosylate Congeners against Candida albicans” (Scientific Reports, 2020)
Converted amounts (≈) assume the structure as drawn.

Columns and labels:
[1] = tested on: C. albicans SC5314, C. albicans 4175 and C. albicans 5112; assay: JC-10 mitochondrial membrane potential assay; assay type: cell-based, Candida albicans; settings: 3 h, range over three strains, vs untreated control
Protocol: (§1) To study the effect of test compounds on apoptotic markers protoplasts were prepared as described previously, with modifications. Briefly, mid-exponential phase cells were harvested and exposed to various concentrations of test compounds (0.5 × MIC, 1 × MIC and 2×MIC) for 3 h. The cells were then washed twice with protoplast buffer- I (1 M sorbitol, 50 mM tris base, 10 mM MgCl2 and 30 mM DTT) and incubated in the same buffer for 15 minutes at 25 °C, followed by centrifugation at 1500 rpm for 5 minutes. Supernatant was removed and cells were incubated with buffer- II (1 M sorbitol, 50 mM tris base, 10 mM MgCl2 and 1 mM DTT) supplemented with lyticase enzyme (≥1 µg/mL) used to digest the cell wall for 1 h at 25 °C. Buffer- II were removed by centrifugation and then cells were incubated with buffer- III (1 M sorbitol, 50 mM tris base and 10 mM MgCl2) for 20 minutes at room temperature. After the incubation cells were again centrifuged at 1500 rpm for 5 minutes and supernatant was discarded. Protoplasts then finally washed once with PBS and re-suspended in the same for further use. In each washing steps the volume of these protoplast buffers were 5 times to cell volume with pH 7.4.
For the detection of mitochondrial membrane potential changes in cells exposed with different concentrations of active tosylate congeners, the JC-10 mitochondrial membrane potential assay kit–microplate (abcam, Cambridge, UK) was used according to the manufacturer’s instructions. Protoplasts were prepared as described above at a concentration of 1 × 10^6 cells/ml. 90 µl of this suspension was added to each well in 96-well microplate (with black wall and clear bottom) followed by addition of 50 µl/well JC-10 dye-loading solution. […] Fluorescence intensity were monitored at Ex/Em = 490/525 nm and 540/590 nm with a BioTek Synergy HT microplate reader (BioTek Instruments, WA, USA) for ratio analysis. The ratio between aggregate (Em = 525 nm) and monomeric forms (Em = 590 nm) of JC-10, were measured to find the change in mitochondrial membrane potential. […]

Candida albicans 4106 = assay: Broth microdilution antifungal susceptibility (MIC/MFC); assay type: cell-based; settings: strain 4106, FLC resistant
Protocol: (§2) In this study, 10 clinical Candida albicans isolates, comprising of 5 fluconazole susceptible and 5 fluconazole resistant, were used. C. albicans SC5314 was also used as a control laboratory strain. Clinical strains used in this study were stored at −80 °C supplemented with 20% glycerol in the Department of Clinical Microbiology and Infectious Diseases, University of the Witwatersrand, Johannesburg and were previously collected under the ethical clearance number M000402, obtained from the Human Research Ethics Committee, University of the Witwatersrand. For experimental purpose each strain from glycerol stock was recovered on Sabouraud Dextrose (SDA) agar plates at 37 °C for 24 h.
(§3) Minimum Inhibitory Concentration (MIC) and Minimum Fungicidal Concentrations (MFC) of all newly synthesized eugenol-tosylate congeners (ETC-1–ETC-7) against C. albicans strains were determined by broth microdilution assay in accordance with the approved guidelines described by Clinical and Laboratory Standards Institute (CLSI) guidelines M27-A[38]. The test compounds were prepared in 1% DMSO to a stock concentration of 8192 µg/ml. Two-fold dilutions of test compounds (100 µL) were prepared in 96-well flat-bottom microtiter plates, inoculated with 100 µl of inoculum (1 × 10^6 cells/mL) and incubated at 37 °C for 24 hours. In every set of experiment, positive control (fluconazole), negative vehicle control (1% DMSO) and culture control (media and cells only) were included. MIC’s were determined visibly as the lowest concentration of the test compounds that inhibited growth of test organism. To determine MFC, each well without visible growth was sub-cultured onto agar plates. Concentration in the first well with no growth on plate was taken as MFC. […] The experiment was performed in triplicate to validate the results.

Candida albicans 4563 = assay: as above; assay type: cell-based; settings: strain 4563, FLC susceptible
Protocol: as §2, §3

Candida albicans 5112 = assay: as above; assay type: cell-based; settings: strain 5112, FLC resistant
Protocol: as §2, §3

Candida albicans SC5314 = assay: as above; assay type: cell-based; settings: SC5314, FLC susceptible
Protocol: as §2, §3

Candida albicans 4180 = assay: as above; assay type: cell-based; settings: strain 4180, FLC susceptible
Protocol: as §2, §3

[2] = tested on: C. albicans 4175, C. albicans 5112 and C. albicans SC5314; assay: TUNEL assay for DNA damage; assay type: cell-based, Candida albicans; settings: 0.5 × MIC, 1 × MIC and 2 × MIC, compared to the negative control; dose dependent
Protocol: as §1, with “Protoplasts then finally washed once with PBS and re-suspended in the same for further use. In each washing steps the volume of these protoplast buffers were 5 times to cell volume with pH 7.4.” left out
TUNEL assay was used to detect the DNA damage, a hallmark for late stages of apoptosis. […] Slides were examined by fluorescence microscopy using Zeiss Laser Scanning Confocal Microscope (LSM) 780 (Carl Zeiss Microscopy, Jena, Germany) with an excitation wavelength of 495 nm and emission wavelength of 519 nm. […] Images were further analyzed by using software ImageJ.

With `C=CCc1ccc(OS(=O)(=O)c2ccc(C(=O)O)cc2)c(OC)c1` [ETC-7, 4-{[2-methoxy-4-(prop-2-en-1-yl)phenoxy]sulfonyl}benzoic acid] the “decrease in mitochondrial membrane potential” value (from here on “decrease”) ([1]; 0.5 × MIC) was 1.04–1.58 folds, the “decrease” value ([1]; 1 × MIC) was 1.56–2.62 folds and the “decrease” value ([1]; 2 × MIC) was 3.55–4.46 folds. The MFC (Candida albicans 4106) was 4 µg/mL (≈ 11.5 µM), the MIC (Candida albicans 4106; 37 °C, 24 h) was 2 µg/mL (≈ 5.74 µM) and the MFC (Candida albicans 4563) was 2 µg/mL (≈ 5.74 µM). The MIC (Candida albicans 4563; 37 °C, 24 h) was 1 µg/mL (≈ 2.87 µM), the MFC (Candida albicans 5112) was 16 µg/mL (≈ 45.9 µM) and the MIC (Candida albicans 5112; 37 °C, 24 h) was 8 µg/mL (≈ 23 µM). For the same compound, the MFC (Candida albicans SC5314) was 2 µg/mL (≈ 5.74 µM), the MIC (Candida albicans SC5314; 37 °C, 24 h) was 1 µg/mL (≈ 2.87 µM) and the MFC (Candida albicans 4180) was 8 µg/mL (≈ 23 µM). The MIC (Candida albicans 4180; 37 °C, 24 h) was 4 µg/mL (≈ 11.5 µM) and the “TUNEL positive nuclei (DNA fragmentation)” value [2] was “significant increase in proportion of TUNEL positive nuclei”.
